Values of other authors, collected in patent publication US8591947B2, “Dual controlled release dosage form” (Osmotica Kereskedelmi és Szolgáltató KFT, priority 2001, dated 2013).
Where a name gives a salt, the structure may show the parent alone.

| Structure (SMILES) | Solubility of component in water (U.S.P. term) |
| --- | --- |
| CN[C@H]1CC[C@@H](c2ccc(Cl)c(Cl)c2)c2ccccc21 [sertraline HCl] | slightly soluble |
| CCCc1nn(C)c2c(=O)[nH]c(-c3cc(S(=O)(=O)N4CCN(C)CC4)ccc3OCC)nc12 [sildenafil citrate] | slightly soluble |
| CNS(=O)(=O)Cc1ccc2[nH]cc(CCN(C)C)c2c1 [sumatriptan] | soluble |
| COc1cccc(C2(O)CCCCC2CN(C)C)c1 (centres unmarked) [tramadol HCl] | freely soluble |
| O=c1n(CCCN2CCN(c3cccc(Cl)c3)CC2)nc2ccccn12 [trazodone HCl] | sparingly soluble |
